# Assay results taken from patent US8389019B2, “Method for improving the quality of meat by reducing boar taint” (priority 2007, dated 2013).
# Marks after values point to notes of the source that are not given here.
# Tests used:
# [1] = test system: testes of a male pig; test: Example 3: pattern of testicular shrinkage after intratesticular injection in male pig; assay type: in vivo; details: 1 ml of 10% by weight solution per testis
# [2] = test system: testes of sexually mature male dogs; test: Example 7: semen evaluation of 53 sexually mature male dogs; assay type: in vivo, dog; details: six months post-injection, one of 53 dogs
# Protocol: Dosage was based on testicular width according to the following table.
# Semen analysis of all dogs prior to injection indicated normal fertility parameters. All of the dogs were followed for six months post-injection, and semen analysis was performed at 2 month intervals for a total of three times.
# [3] = test system: male Beagle puppies; test: Example 5: exposure of treated dogs to females in heat (copulation, pregnancy); assay type: in vivo, Beagle dog; details: for number of the ten dogs that copulated with females: each dog exposed to three females in heat
# Text: (§1) Forty (40) healthy, male Beagle puppies, six months of age, were divided into the following four groups according to testicular width.
# Of the ten control placebo dogs, seven copulated with females and pregnancy occurred in all of the females (100% pregnancy rate). Each of the treated dogs was exposed to three different females in heat.
# [4] = test system: testes of male puppies; test: Example 6: clinical trial in 225 male puppies at five sites, semen analysis and physical examination; assay type: in vivo, dog
# Protocol: Four hundred fifty (450) intratesticular injections were performed in the dorsal cranial area of the testes of 225 male puppies (one injection per testis; two testes per dog) at five investigational sites. The 225 puppies ranged in age from 2½ to 10 months and were of various breeds. After the necessary training, all of the investigators mastered the technique of testicular measurement and intratesticular injection (dorsal cranial). Based on the experience of these investigators in the clinical trial, all veterinarians will be able to easily use this dorsal cranial injection technique.
# After at least 6 months of follow-up, semen analysis and physical examination were performed as the primary indicators of clinical trial efficacy.
# [5] = test system: serum testosterone; test: Example 5: serum testosterone level in Beagle puppies; assay type: in vivo, Beagle dog; details: twelve months post-injection
# Protocol: as §1
# (§2) As compared to the control placebo group, serum testosterone level at twelve (12) months post-injection had (1) decreased by 43% in the 25 mg treated group, (2) decreased by 55% in the 30 mg treated group, and (3) decreased by 52% in the 35 mg treated group.
# [6] = Example 5: body homeostasis, clinical observations and testicular measurement in Beagle puppies; assay type: in vivo, Beagle dog; details: 25, 30 or 35 mg per testis
# Protocol: as §1
# The body weight of all dogs increased.
# as §2
# [7] = test system: testes of male Beagle puppies; test: Example 5: semen analysis of Beagle puppies; assay type: in vivo, Beagle dog
# Protocol: as §1
# Semen analysis was performed on a monthly basis for […]. Semen analysis at 24 months post-injection indicated the following.
# [8] = test system: testes of Sprague Dawley male rats; test: Example 4: infertility/sterility in rats, dorsal cranial vs midline injection, histopathology of epididymides and testes; assay type: in vivo, rat; details: 0.1 ml 10% per testis; for infertility/sterility achieved, share of rats: two months post-injection, 10 rats
# Protocol: Twenty (20) Sprague Dawley, male rats were divided into two groups of ten (10) rats per group. […] Two months post-injection, both groups were sacrificed, and all of the epididymides and testes were evaluated by histopathology.
# [9] = test system: testes of male Beagle puppies; test: Example 5: quantitative evaluation of testis histopathology; assay type: in vivo, Beagle dog; details: n = 10
# Protocol: as §1
# Quantitative information provides the strongest evidence that control and treated tissues are either alike or different. In order to obtain the very detailed information about the testes after dorsal cranial injection, quantitative evaluation of the testes histopathology was performed in 40 dogs post-injection.
# [10] = test system: testis; test: Example 2: beagle puppy injected in each testis, testes excised at 30 months; assay type: in vivo, beagle dog; details: 0.25 ml per testis (13.1 mg/ml zinc), dorsal cranial, injected at six months, sacrificed at 30 months; control 6.8 g
# Protocol: A beagle puppy weighing 19 lbs at six months of age was injected in each testis with 0.25 ml of a chemical sterilant containing 13.1 mg/ml of zinc as zinc gluconate neutralized by 34.8 mg/ml of l-arginine with the pH adjusted to 7.0 with hydrochloric acid. The injection was into the dorsal cranial portion of the testis as could best be estimated externally.
# The treated animal was sacrificed at 30 months of age when he weighed 31 lbs. The testes were excised and each weighed 3.5 g.
# A control beagle weighing 18 lbs at six months was housed with the treated animal. This animal was also sacrificed at 30 months. The control dog weighed 30 lbs and each testis weighed 6.8 g. A histological section of the rete testis of the control animal was taken and a light micrograph of the section at 10× is shown in FIG. 2.
# [11] = Total of all six doses, n = 225
# [12] = 25 mg per testis, 24 months post-injection, n = 10
# [13] = 25 mg per testis, the 10% of dogs with severe oligospermia, 24 months
# [14] = dorsal cranial injection, two months
compound,measurement,setting,value
N=C(N)NCCC[C@H](N)C(=O)O.[Zn] [zinc arginine],pattern of testicular shrinkage,[1]; injection at the dorsal cranial area (FIG. 5),proportional shrinkage
same,pattern of testicular shrinkage,[1]; injection at the midline (FIG. 4),disproportional shrinkage
zinc gluconate neutralized by arginine,Sperm Concentration of the dog that stayed normal,[2],Normal 70 million/ml
same,number of the ten dogs that copulated with females,[3]; 25 mg per testis,Two
same,number of the ten dogs that copulated with females,[3]; 30 mg per testis,five
same,number of the ten dogs that copulated with females,[3]; 35 mg per testis,four
same,pregnancy of females after copulation,"[3]; 25, 30 and 35 mg per testis, control placebo 100% pregnancy rate",no pregnancy occurred
same,"Aspermia (No Semen Ejaculated), number of puppies",[4]; [11],174
same,"Azoospermia (No Sperm in Ejaculate), number of puppies",[4]; [11],48
same,"Necrospermia (Sperm in Ejaculate Are Dead or Motionless), number of puppies",[4]; [11],1
same,"Oligospermia (Less than 20 Million Sperm per ml), number of puppies",[4]; [11],1
same,"Sperm in Ejaculate Are Motile, number of puppies",[4]; [11],1
same,"Aspermia (No Semen Ejaculated), number of puppies",[4]; dose per testis 0.2 ml,59
same,"Azoospermia (No Sperm in Ejaculate), number of puppies",[4]; dose per testis 0.2 ml,12
same,"Necrospermia (Sperm in Ejaculate Are Dead or Motionless), number of puppies",[4]; dose per testis 0.2 ml,0
same,"Oligospermia (Less than 20 Million Sperm per ml), number of puppies",[4]; dose per testis 0.2 ml,1
same,"Sperm in Ejaculate Are Motile, number of puppies",[4]; dose per testis 0.2 ml,0
same,"Aspermia (No Semen Ejaculated), number of puppies",[4]; dose per testis 0.3 ml,27
same,"Azoospermia (No Sperm in Ejaculate), number of puppies",[4]; dose per testis 0.3 ml,5
same,"Necrospermia (Sperm in Ejaculate Are Dead or Motionless), number of puppies",[4]; dose per testis 0.3 ml,0
same,"Oligospermia (Less than 20 Million Sperm per ml), number of puppies",[4]; dose per testis 0.3 ml,0
same,"Sperm in Ejaculate Are Motile, number of puppies",[4]; dose per testis 0.3 ml,0
same,"Aspermia (No Semen Ejaculated), number of puppies",[4]; dose per testis 0.5 ml,21
same,"Azoospermia (No Sperm in Ejaculate), number of puppies",[4]; dose per testis 0.5 ml,7
same,"Necrospermia (Sperm in Ejaculate Are Dead or Motionless), number of puppies",[4]; dose per testis 0.5 ml,0
same,"Oligospermia (Less than 20 Million Sperm per ml), number of puppies",[4]; dose per testis 0.5 ml,0
same,"Sperm in Ejaculate Are Motile, number of puppies",[4]; dose per testis 0.5 ml,1*
same,"Aspermia (No Semen Ejaculated), number of puppies",[4]; dose per testis 0.7 ml,30
same,"Azoospermia (No Sperm in Ejaculate), number of puppies",[4]; dose per testis 0.7 ml,4
same,"Necrospermia (Sperm in Ejaculate Are Dead or Motionless), number of puppies",[4]; dose per testis 0.7 ml,0
same,"Oligospermia (Less than 20 Million Sperm per ml), number of puppies",[4]; dose per testis 0.7 ml,0
same,"Sperm in Ejaculate Are Motile, number of puppies",[4]; dose per testis 0.7 ml,0
same,"Aspermia (No Semen Ejaculated), number of puppies",[4]; dose per testis 0.8 ml,19
same,"Azoospermia (No Sperm in Ejaculate), number of puppies",[4]; dose per testis 0.8 ml,4
same,"Necrospermia (Sperm in Ejaculate Are Dead or Motionless), number of puppies",[4]; dose per testis 0.8 ml,1
same,"Oligospermia (Less than 20 Million Sperm per ml), number of puppies",[4]; dose per testis 0.8 ml,0
same,"Sperm in Ejaculate Are Motile, number of puppies",[4]; dose per testis 0.8 ml,0
same,"Aspermia (No Semen Ejaculated), number of puppies",[4]; dose per testis 1.0 ml,18
same,"Azoospermia (No Sperm in Ejaculate), number of puppies",[4]; dose per testis 1.0 ml,16
same,"Necrospermia (Sperm in Ejaculate Are Dead or Motionless), number of puppies",[4]; dose per testis 1.0 ml,0
same,"Oligospermia (Less than 20 Million Sperm per ml), number of puppies",[4]; dose per testis 1.0 ml,0
same,"Sperm in Ejaculate Are Motile, number of puppies",[4]; dose per testis 1.0 ml,0
same,efficacy (infertility/sterility),"[4]; six different doses, 225 puppies, at least 6 months of follow-up",99.6%
same,number of puppies (of 225) in which infertility/sterility was achieved,"[4]; six different doses, dorsal cranial, at least 6 months of follow-up",224
same,decrease of serum testosterone level compared to control placebo,[5]; 25 mg per testis,43%
same,decrease of serum testosterone level compared to control placebo,[5]; 30 mg per testis,55%
same,decrease of serum testosterone level compared to control placebo,[5]; 35 mg per testis,52%
same,"effect on rectal temperature, complete blood count, blood chemistries",[6],no clinical effect
same,body weight,[6]; all dogs,increased
same,effect on body homeostasis,[6]; dorsal cranial,None of the treatments affected body homeostasis
same,testicular swelling post-injection,[6]; for one week post-injection,transient testicular swelling
same,testicular measurement after the first week,"[6]; p<0.0001, control placebo increased",decreased significantly
same,share of dogs permanently sterilized (azoospermia or aspermia),[7]; [12],90%
same,share of dogs with severe oligospermia,[7]; [12],10%
same,Concentration/ml (×10^6),[7]; [13],0.01 ×10^6/ml
same,Motility,[7]; [13],1.00%
same,Normal Sperm,[7]; [13],6.70%
same,Volume of Ejaculation,[7]; [13],0.74 mL
same,share of dogs permanently sterilized (azoospermia or aspermia),"[7]; 30 mg per testis, 24 months post-injection, n = 10",100%
same,share of dogs permanently sterilized (azoospermia or aspermia),"[7]; 35 mg per testis, 24 months post-injection, n = 10",100%
same,overall outcome of one intratesticular injection,"[7]; dorsal cranial area, male puppies",permanent sterilization
same,function of the testes (histopathology),[8]; [14],complete dysfunction in the testes
same,sperm in the epididymides,[8]; [14],no sperm were found in the epididymides
same,"infertility/sterility achieved, share of rats",[8]; dorsal cranial injection,100%
same,function of the testes (histopathology),"[8]; midline injection, two months",some parts of the testes were functioning
same,share of epididymides in which sperm were found,"[8]; midline injection, two months",30%
same,"infertility/sterility achieved, share of rats",[8]; midline injection,70%
same,"Basement Membrane, Average",[9]; 25 mg per testis,4.80 μm
same,"Basement Membrane, Left",[9]; 25 mg per testis,5.00 μm
same,"Basement Membrane, Right",[9]; 25 mg per testis,4.59 μm
same,"Diameter of Seminiferous Tubule, Average",[9]; 25 mg per testis,124.00 μm
same,"Diameter of Seminiferous Tubule, Left",[9]; 25 mg per testis,116.0 μm
same,"Diameter of Seminiferous Tubule, Right",[9]; 25 mg per testis,132.0 μm
same,"Height of Germinal Epithelium, Average",[9]; 25 mg per testis,14.10 μm
same,"Height of Germinal Epithelium, Left",[9]; 25 mg per testis,11.8 μm
same,"Height of Germinal Epithelium, Right",[9]; 25 mg per testis,16.4 μm
same,"Basement Membrane, Average",[9]; 30 mg per testis,5.53 μm
same,"Basement Membrane, Left",[9]; 30 mg per testis,5.50 μm
same,"Basement Membrane, Right",[9]; 30 mg per testis,5.57 μm
same,"Diameter of Seminiferous Tubule, Average",[9]; 30 mg per testis,113.75 μm
same,"Diameter of Seminiferous Tubule, Left",[9]; 30 mg per testis,115.1 μm
same,"Diameter of Seminiferous Tubule, Right",[9]; 30 mg per testis,112.4 μm
same,"Height of Germinal Epithelium, Average",[9]; 30 mg per testis,7.20 μm
same,"Height of Germinal Epithelium, Left",[9]; 30 mg per testis,5.5 μm
same,"Height of Germinal Epithelium, Right",[9]; 30 mg per testis,8.9 μm
same,"Basement Membrane, Average",[9]; 35 mg per testis,6.00 μm
same,"Basement Membrane, Left",[9]; 35 mg per testis,6.04 μm
same,"Basement Membrane, Right",[9]; 35 mg per testis,5.96 μm
same,"Diameter of Seminiferous Tubule, Average",[9]; 35 mg per testis,124.05 μm
same,"Diameter of Seminiferous Tubule, Left",[9]; 35 mg per testis,124.8 μm
same,"Diameter of Seminiferous Tubule, Right",[9]; 35 mg per testis,123.3 μm
same,"Height of Germinal Epithelium, Average",[9]; 35 mg per testis,10.30 μm
same,"Height of Germinal Epithelium, Left",[9]; 35 mg per testis,9.6 μm
same,"Height of Germinal Epithelium, Right",[9]; 35 mg per testis,11.0 μm
same,weight of each excised testis,[10],3.5 g
